Assay [1] relates to HCT116 MTAP-deleted cell lines. Briefly: Cell viability assay (CellTiter-Glo, 7 days), HCT116 MTAP-deleted. The format is cell-based. The note with it: Homo sapiens, HCT-116, HCT116 MTAP-deleted, class symbols, read-out: CC50. An outline of the steps: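 PRMT5 inhibitors were serially diluted in DMSO and acoustically spotted as dose-response series into plates before cell seeding. Cells were grown with compound for 7 days at 37 °C, 5% CO2, 90% humidity, then viability was read by CellTiter-Glo luminescence and reported as CC50.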
A general note: ATP-based viability assays read luminescence as a measure of living cells.

Assay [2] deals with Symmetric Di-methyl Arginine (SDMA) signal (PRMT5 inhibition) in HCT116 MTAP-deleted cells. Briefly: Symmetric di-methyl arginine image-based high content screen assay (SDMA assay), HCT116 MTAP-deleted. The note with it: for EC50 selectivity: HCT116 WT versus HCT116 MTAP-deleted; for pEC50: Homo sapiens, HCT-116, HCT116 MTAP-deleted, class symbols. It is filed as cell-based. Here is the method:
Symmetric di-methyl arginine image-based high content screen assay (SDMA assay) was performed in HCT116 WT and HCT116 MTAP-deleted cell lines to measure Symmetric Di-methyl Arginine (SDMA) signal reduction after selective PRMT5 inhibition in the MTAP-deleted cells. Control compounds were analyzed in parallel each time for quality control.
Briefly, the same compound plates were generated as mentioned in the previous section of Cell viability assay on Day −1. On Day 0, 800 HCT WT or HCT116 MTAP-deleted cell were seeded in compound-containing 384 well plates (50 μl per well) in RPMI 1640 media supplemented with 10% heat inactivated fetal bovine serum, Glutamax and penicillin streptomycin using EL460 liquid dispenser 5 μl cassette (BioTek, part no. 7170011). After equilibrating the plate at room temperature, the cells were incubated for 3 days inside the sealed incubator set at 37° C. with 90% humidity and 5% C02.
On Day 3, the cells were fixed by adding 45 μl of 8% neutralized formalin solution to each well using EL460 liquid dispenser 5 μl cassette and the cells were incubated for 30 minutes at room temperature. The formalin solution was washed off with […] phosphate buffered saline (dPBS), the 0.1% Triton X-100 solution in dPBS was used to permeabilize the cells for 15 minutes at room temperature. The triton solution was aspirated, 50 μl of Odyssey Blocking buffer +0.05% Tween20 was added and the plate was incubated at room temperature for 30 minutes.
The blocking solution was removed, a 20 μl of SDMA antibody (Cell Signaling Technology, Cat no. 13222) diluted 1:500 in Odyssey Blocking buffer +0.05% Tween20 was added and the plate was incubated at 4° C. overnight. Next day, the primary SDME antibody solution was washed from each well three times with 0.05% Tween20 in dPBS (PBST).
A 30 μl of the secondary antibody, a Goat anti-Rabbit Alexa Fluor Plus 488 (Invitrogen, Cat no. PIA32731) was diluted 1:500 in Odyssey Blocking buffer +0.05% Tween20 and the plate was incubated for 1.5 hours in dark at room temperature. The secondary antibody solution was removed, 30 μl of 5 mg/ml DAPI solution diluted 1:2000 in dPBS was added and the plate was incubated for 30 minutes in dark at room temperature. The DAPI solution was aspirated and the wells were washed six times with dPBS.
The SDMA signal and DAPI signal per cell were counted using a Cellomics CX7 LZR instrument reading under 488 and 405 nm laser, respectively. The SDMA signal was quantified by mean average intensity per cell from Alexa Fluor Plus 488 after the cell was defined with DAPI. The EC50 values for each compound after 3 days of treatment were calculated using 4 parameter non-linear logistical curve fit.
For the SDMA assay i.e. EC50 shown in Table 3A: A: EC50≤1 nM, B: 1 nM<EC50≤5 nM, C: EC50>5 nM.

pEC50: −log10 of the molar value. Read-outs that look alike come from different tables or passages of the source.

Broadly, the CC50 is the concentration giving 50% cytotoxicity. In general, pEC50 refers to the negative decadic logarithm of the EC50, by convention in mol/L. Take `Nc1nc2cc(F)c(C(=O)N3CCO[C@@H]4Cc5cc(Br)ccc5[C@@H]43)cc2n2cncc12` (racemic) [Ff-28, Racemic(4-amino-7-fluoroimidazo[1,5-a]quinoxalin-8-yl)((4aS,9aR)-7-bromo-2,3,9,9a-tetrahydroindeno[2,1-b][1,4]oxazin-4(4aH)-yl)methanone]: the CC50 in assay [1] (cell viability) was under 100 nM. In assay [2], this molecule gave an EC50 selectivity of 256 and a negative logarithm of the EC50 (pEC50) of 8.30 to 9.00. Regarding `COc1ccc2c(c1)CO[C@H]1CCCN(C(=O)c3cc4c(cc3F)nc(N)c3cncn34)[C@@H]21` (racemic) [Ff-44, Rac-(4-amino-7-fluoroimidazo[1,5-a]quinoxalin-8-yl)((cis)-8-methoxy-2,3,4,4a,6,10b-hexahydro-1H-isochromeno[4,3-b]pyridin-1-yl)methanone], the CC50 in assay [1] (cell viability) was under 100 nM. In assay [2], this molecule gave an EC50 selectivity of 73 and a pEC50 of 8.30 to 9.00. On to `Nc1nc2cc(F)c(C(=O)N3CCCC4OCc5nc(C(F)(F)F)ccc5[C@@H]43)cc2n2cncc12` (mixture of isomers) [Ff-319, Rac-(4-amino-7-fluoroimidazo[1,5-a]quinoxalin-8-yl)((4aS,10bS)-8-(trifluoromethyl)-2,3,4,4a,6,10b-hexahydro-1H-pyrano[3,2-b:5,4-b′]dipyridin-1-yl)methanone], for which the CC50 in assay [1] (cell viability) was under 100 nM. In assay [2], this molecule had an EC50 selectivity of 42 and a negative-log EC50 (pEC50) of 8.30 to 9.00. With `C[C@@H]1CC2Cc3cc(C(F)(F)F)ccc3[C@@H]2N(C(=O)c2cc3c(cc2F)nc(N)c2cncn23)C1` (mixture of isomers) [Ff-320, Rac-(4-amino-7-fluoroimidazo[1,5-a]quinoxalin-8-yl)((3R,4aR,9bR)-3-methyl-7-(trifluoromethyl)-2,3,4,4a,5,9b-hexahydro-1H-indeno[1,2-b]pyridin-1-yl)methanone], the CC50 in assay [1] (cell viability) was under 100 nM. Besides, in assay [2], the EC50 selectivity amounted to 26 and the negative logarithm of the EC50 (pEC50) is 8.30 to 9.00.

For `C[C@@H]1C[C@@H]2Cc3nc(C(F)(F)F)ccc3[C@@H]2N(C(=O)c2cc3c(cc2F)nc(N)c2cncn23)C1` (racemic) [Ff-321, Rac-(4-amino-7-fluoroimidazo[1,5-a]quinoxalin-8-yl)((4bR,7R,8aR)-7-methyl-2-(trifluoromethyl)-4b,6,7,8,8a,9-hexahydro-5H-cyclopenta[1,2-b:3,4-b′]dipyridin-5-yl)methanone], the CC50 in assay [1] (cell viability) is under 100 nM. In assay [2], the EC50 selectivity amounted to 67 and the pEC50 was 8.30 to 9.00.

As to `Cc1ncn2c1c(N)nc1cc(F)c(C(=O)N3C[C@@H](C)O[C@@H]4Cc5cc(C(F)(F)F)ccc5[C@@H]43)cc12` [Fg-34, (4-amino-7-fluoro-3-methylimidazo[1,5-a]quinoxalin-8-yl)((2R,4aS,9aR)-2-methyl-7-(trifluoromethyl)-2,3,9,9a-tetrahydroindeno[2,1-b][1,4]oxazin-4(4aH)-yl)methanone], the cytotoxic concentration (CC50) in assay [1] (cell viability assay) is under 100 nM. `Cc1ncn2c1c(N)nc1cnc(C(=O)N3CC4(CC4)C[C@@H]4Oc5cc(C(F)(F)F)ccc5[C@@H]43)cc12` [Fg-36, (4-amino-3-methylimidazo[1,5-a]pyrido[3,4-e]pyrazin-8-yl)((4aS,9bS)-7-(trifluoromethyl)-4a,9b-dihydro-2H-spiro[benzofuro[3,2-b]pyridine-3,1′-cyclopropan]-1(4H)-yl)methanone]: the CC50 in assay [1] (cell viability assay) was under 100 nM. In the case of `Cc1ncn2c1c(N)nc1cnc(C(=O)N3C[C@@H](C)C[C@@H]4Oc5cc(C(F)(F)F)ccc5[C@@H]43)cc12` [Fg-37, (4-amino-3-methylimidazo[1,5-a]pyrido[3,4-e]pyrazin-8-yl)((3S,4aS,9bS)-3-methyl-7-(trifluoromethyl)-3,4,4a,9b-tetrahydrobenzofuro[3,2-b]pyridin-1(2H)-yl)methanone], the 50% cytotoxic concentration (CC50) in assay [1] (cell viability assay) is under 100 nM.

For the molecule `Cc1ncn2c1c(N)nc1cnc(C(=O)N3C[C@H](C)C[C@@H]4Oc5cc(C(F)(F)F)c(F)cc5[C@@H]43)cc12` [Fg-39, (4-amino-3-methylimidazo[1,5-a]pyrido[3,4-e]pyrazin-8-yl)((3R,4aS,9bS)-8-fluoro-3-methyl-7-(trifluoromethyl)-3,4,4a,9b-tetrahydrobenzofuro[3,2-b]pyridin-1(2H)-yl)methanone], the CC50 in assay [1] (cell viability assay) is under 100 nM. Consider `Cc1ncc2c(N)nc3cnc(C(=O)N4CCC[C@@H]5Oc6cc(S(F)(F)(F)(F)F)ccc6[C@@H]54)cc3n12` [Fg-43, (4-amino-1-methylimidazo[1,5-a]pyrido[3,4-e]pyrazin-8-yl)((4aS,9bS)-7-(pentafluoro-16-sulfaneyl)-3,4,4a,9b-tetrahydrobenzofuro[3,2-b]pyridin-1(2H)-yl)methanone], for which the CC50 in assay [1] (cell viability assay) is under 100 nM. As to `Cc1ncc2c(N)nc3cnc(C(=O)N4C[C@@H](F)C[C@@H]5Oc6cc(OC(F)(F)F)ccc6[C@@H]54)cc3n12` [Fg-45, (4-amino-1-methylimidazo[1,5-a]pyrido[3,4-e]pyrazin-8-yl)((3S,4aS,9bS)-3-fluoro-7-(trifluoromethoxy)-3,4,4a,9b-tetrahydrobenzofuro[3,2-b]pyridin-1(2H)-yl)methanone], the CC50 in assay [1] (cell viability assay) is under 100 nM.

On to `Cc1ncn2c1c(N)nc1ccc(C(=O)N3C[C@@H](F)C[C@@H]4Oc5cc(OC(F)(F)F)ccc5[C@@H]43)cc12` [Fg-47, (4-amino-3-methylimidazo[1,5-a]quinoxalin-8-yl)((3S,4aS,9bS)-3-fluoro-7-(trifluoromethoxy)-3,4,4a,9b-tetrahydrobenzofuro[3,2-b]pyridin-1(2H)-yl)methanone], for which the CC50 in assay [1] (cell viability assay) was under 100 nM.

As for `CCc1cc2nc(N)c3cncn3c2cc1C(=O)N(C)[C@@H]1COc2cc(C(F)(F)F)ccc21` [Fg-52, (S)-4-amino-7-ethyl-N-methyl-N-(6-(trifluoromethyl)-2,3-dihydrobenzofuran-3-yl)imidazo[1,5-a]quinoxaline-8-carboxamide], in assay [1] (cell viability assay), the CC50 was under 100 nM. The same measure, in the same setting: with `Nc1nc2cc(C3CC3)c(C(=O)N3CCC[C@@H]4Oc5cc(C(F)(F)F)ccc5[C@@H]43)cc2n2cncc12` [Fg-56, (4-amino-7-cyclopropylimidazo[1,5-a]quinoxalin-8-yl)((4aS,9bS)-7-(trifluoromethyl)-3,4,4a,9b-tetrahydrobenzofuro[3,2-b]pyridin-1(2H)-yl)methanone] the figure was 100 to 1000 nM. Take `Nc1nc2cnc(C(=O)N3CC4(CC4)C[C@@H]4Oc5cc(OC(F)(F)F)ccc5[C@@H]43)cc2n2cncc12` [Fg-61, (4-aminoimidazo[1,5-a]pyrido[3,4-e]pyrazin-8-yl)((4aS,9bS)-7-(trifluoromethoxy)-4a,9b-dihydro-2H-spiro[benzofuro[3,2-b]pyridine-3,1′-cyclopropan]-1(4H)-yl)methanone]: the cytotoxic concentration (CC50) in assay [1] (cell viability assay) was under 100 nM. For the molecule `Cc1ncn2c1c(N)nc1cnc(C(=O)N3CCC[C@@H]4Oc5c(ccc(OC(F)(F)F)c5F)[C@@H]43)cc12` [Fg-62, (4-amino-3-methylimidazo[1,5-a]pyrido[3,4-e]pyrazin-8-yl)((4aS,9bS)-6-fluoro-7-(trifluoromethoxy)-3,4,4a,9b-tetrahydrobenzofuro[3,2-b]pyridin-1(2H)-yl)methanone], in assay [1] (cell viability assay), the CC50 is under 100 nM. On to `Cc1ncn2c1c(N)nc1cnc(C(=O)N3C[C@H](C)C[C@@H]4Oc5c(ccc(C(F)(F)F)c5F)[C@@H]43)cc12` [Fg-63, (4-amino-3-methylimidazo[1,5-a]pyrido[3,4-e]pyrazin-8-yl)((3R,4aS,9bS)-6-fluoro-3-methyl-7-(trifluoromethyl)-3,4,4a,9b-tetrahydrobenzofuro[3,2-b]pyridin-1(2H)-yl)methanone], for which, in assay [1] (cell viability assay), the 50% cytotoxic concentration (CC50) was under 100 nM. As to `Cc1ncn2c1c(N)nc1cnc(C(=O)N3CC[C@H]4C[C@@H]3c3ccc(C(F)(F)F)cc3O4)cc12` [Fg-64, (4-amino-3-methylimidazo[1,5-a]pyrido[3,4-e]pyrazin-8-yl)((2S,6R)-9-(trifluoromethyl)-3,4-dihydro-2H-2,6-methanobenzo[b][1,5]oxazocin-5(6H)-yl)methanone], the half-maximal cytotoxic concentration (CC50) in assay [1] (cell viability assay) was under 100 nM.

Source of the values: patent publication US12448388B2, “PRMT5 inhibitors and uses thereof” (Gilead Sciences, Inc., priority 2023, dated 2025).
